This is an account of results in patent US7855290B2, “Pyridine derivatives and pyrimidine derivatives (3)” (Eisai R&D Management Co., Ltd., priority 2005, dated 2010).

Assay [1] deals with T1, His6-HGFR (HGFR cytoplasmic domain) (Homo sapiens, UniProt P08581).
T1 construct: made in house; host or cells: Sf9 insect cells (Spodoptera frugiperda), baculovirus, pFastBac-HT vector
The assay can be described thus: Inhibitory activity against HGFR tyrosine kinase activity (HTRF). The conditions noted are these: biotin-poly(GT), ATP, 30° C. 10 min. The assay is classed as biochemical. The method, boiled down:
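Sf9-expressed, Ni-NTA-purified N-terminal His6-tagged HGFR cytoplasmic domain (from Lys974), 30 ng, phosphorylates 250 ng biotin-poly(GT) in Hepes pH 7.4 with MgCl2, MnCl2 and Na3VO4. Reaction started with 4 μM ATP stock, run 10 min at 30° C, stopped with EDTA. Phosphotyrosine is detected by HTRF.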
A general note: TR-FRET usually uses a lanthanide donor and a delayed reading to cut background.

The test system of assay [2] is Human gastric cancer cells (MKN-45). Briefly: Inhibitory activity against the proliferation of human gastric cancer cells (MKN-45). Format: cell-based. The conditions noted are these: 72 h, MKN-45, 1% FBS RPMI1640, 3 days, Cell Counting Kit-8. The essentials:
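MKN-45 cells seeded overnight in RPMI1640 with 1% FBS, then exposed to compound for 3 days at 37° C, 5% CO2. Viability read with CCK-8 after about 1.5 hrs, absorbance at 450 nm (reference 660 nm).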

T1 sequence (P08581 956-1390 limits assumed): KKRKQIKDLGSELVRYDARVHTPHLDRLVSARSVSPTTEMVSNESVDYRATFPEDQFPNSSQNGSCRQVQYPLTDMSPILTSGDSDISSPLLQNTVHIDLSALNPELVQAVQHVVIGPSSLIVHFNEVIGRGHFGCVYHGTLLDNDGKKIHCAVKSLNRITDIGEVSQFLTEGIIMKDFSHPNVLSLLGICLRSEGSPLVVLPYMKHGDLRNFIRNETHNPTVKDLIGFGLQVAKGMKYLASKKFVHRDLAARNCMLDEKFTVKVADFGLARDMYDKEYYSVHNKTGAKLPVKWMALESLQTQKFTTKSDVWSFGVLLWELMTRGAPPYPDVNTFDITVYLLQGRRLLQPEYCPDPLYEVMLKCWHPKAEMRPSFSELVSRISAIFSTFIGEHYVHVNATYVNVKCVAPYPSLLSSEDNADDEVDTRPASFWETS

The IC50 is the midpoint of a concentration-inhibition curve. Low values mean greater potency, high ones weaker potency. Consider `CN(C)[C@@H]1CCN(C(=O)Nc2cc(Oc3ccc(NC(=O)C4(C(=O)Nc5ccc(F)cc5)CC4)cc3F)ccn2)C1` [Example 36, N-(4-{[2-({[(3R)-3-(Dimethylamino)pyrrolidin-1-yl]carbonyl}amino)pyridin-4-yl]oxy}-3-fluorophenyl)-N′-(4-fluorophenyl)cyclopropane-1,1-dicarboxamide], for which the IC50 came out at 46 nM in assay [1] and 22 nM in assay [2].
For the compound `O=C(Nc1cc(Oc2ccc(NC(=O)C3(C(=O)Nc4ccc(F)cc4)CC3)c(F)c2)ccn1)N1CCC(CN2CCC2)CC1` [Example 37, N-(4-{[2-({[4-(Azetidin-1-ylmethyl)piperidin-1-yl]carbonyl}amino)pyridin-4-yl]oxy}-2-fluorophenyl)-N′-(4-fluorophenyl)cyclopropane-1,1-dicarboxamide], the IC50 in assay [1] stood at 53 nM; in assay [2] it was 14 nM.
Turning to `CN(C)C1CN(C2CCN(C(=O)Nc3cc(Oc4ccc(NC(=O)C5(C(=O)Nc6ccc(F)cc6)CC5)cc4)ccn3)CC2)C1` [Example 38, N-[4-({2-[({4-[3-(Dimethylamino)azetidin-1-yl]piperidin-1-yl}carbonyl)amino]pyridin-4-yl}oxy)phenyl]-N′-(4-fluorophenyl)cyclopropane-1,1-dicarboxamide], the IC50 in assay [1] and in assay [2] was 52 nM each time.
Turning to `CN(C)CCN1CCC(N(C)C(=O)Nc2cc(Oc3ccc(NC(=O)C4(C(=O)Nc5ccc(F)cc5)CC4)cc3)ccn2)CC1` [Example 39, N-(4-{[2-({[{1-[2-(Dimethylamino)ethyl]piperidin-4-yl}(methyl)amino]carbonyl}amino)pyridin-4-yl]oxy}phenyl)-N′-(4-fluorophenyl)cyclopropane-1,1-dicarboxamide], the half-inhibitory concentration (IC50) turned out to be 100 nM in assay [1] and 38 nM in assay [2].
As to `O=C(Nc1cc(Oc2ccc(NC(=O)C3(C(=O)Nc4ccc(F)cc4)CC3)c(F)c2)ccn1)N1CCC(CN2CCCC2)CC1` [Example 40, N-(4-Fluorophenyl)-N′-(2-fluoro-4-{[2-({[4-(pyrrolidin-1-ylmethyl)piperidin-1-yl]carbonyl}amino)pyridin-4-yl]oxy}phenyl)cyclopropane-1,1-dicarboxamide], the figures for the 50% inhibitory concentration (IC50) in assay [1] and in assay [2] were 55 nM and 17 nM, respectively.
For the compound `CN(C)[C@H]1CCN(C(=O)Nc2cc(Oc3ccc(NC(=O)C4(C(=O)Nc5ccc(F)cc5)CC4)cc3)ccn2)C1` [Example 41, N-(4-{[2-({[(3S)-3-(Dimethylamino)pyrrolidin-1-yl]carbonyl}amino)pyridin-4-yl]oxy}phenyl)-N′-(4-fluorophenyl)cyclopropane-1,1-dicarboxamide], the IC50 turned out to be 44 nM in assay [1] and 42 nM in assay [2].
Turning to `CN(C)[C@@H]1CCN(C(=O)Nc2cc(Oc3ccc(NC(=O)C4(C(=O)Nc5ccc(F)cc5)CC4)cc3)ccn2)C1` [Example 42, N-(4-{[2-({[(3R)-3-(Dimethylamino)pyrrolidin-1-yl]carbonyl}amino)pyridin-4-yl]oxy}phenyl)-N′-(4-fluorophenyl)cyclopropane-1,1-dicarboxamide], the IC50 was determined as 57 nM in assay [1] and 60 nM in assay [2].
For `CCN(CC)CCCNC(=O)Nc1cc(Oc2ccc(NC(=O)C3(C(=O)Nc4ccc(F)cc4)CC3)c(Cl)c2)ccn1` [Example 43, N-[2-Chloro-4-({2-[({[3-(diethylamino)propyl]amino}carbonyl)amino]pyridin-4-yl}oxy)phenyl]-N′-(4-fluorophenyl)cyclopropane-1,1-dicarboxamide] the same measures were 180 nM and 280 nM.
For `CCN(CC)CCCN(C)C(=O)Nc1cc(Oc2ccc(NC(=O)C3(C(=O)Nc4ccc(F)cc4)CC3)cc2F)ccn1` [Example 44, N-(4-{[2-({[[3-(Diethylamino)propyl](methyl)amino]carbonyl}amino)pyridin-4-yl]oxy}-3-fluorophenyl)-N′-(4-fluorophenyl)cyclopropane-1,1-dicarboxamide], in that order: 91 nM and 54 nM.
For `CCN(CC)CCCNC(=O)Nc1cc(Oc2ccc(NC(=O)C3(C(=O)Nc4ccc(F)cc4)CC3)cc2C)ccn1` [Example 45, N-[4-({2-[({[3-(Diethylamino)propyl]amino}carbonyl)amino]pyridin-4-yl}oxy)-3-methylphenyl]-N′-(4-fluorophenyl)cyclopropane-1,1-dicarboxamide], the results for the IC50 in assay [1] and in assay [2] were 240 nM and 500 nM, respectively.
For `CN(C)[C@H]1CCN(C(=O)Nc2cc(Oc3ccc(NC(=O)C4(C(=O)Nc5ccc(F)cc5)CC4)c(F)c3)ccn2)C1` [Example 46, N-(4-{[2-({[(3S)-3-(Dimethylamino)pyrrolidin-1-yl]carbonyl}amino)pyridin-4-yl]oxy}-2-fluorophenyl)-N′-(4-fluorophenyl)cyclopropane-1,1-dicarboxamide] the same measures were 64 nM and 14 nM.
For `CN(C)[C@@H]1CCN(C(=O)Nc2cc(Oc3ccc(NC(=O)C4(C(=O)Nc5ccc(F)cc5)CC4)c(F)c3)ccn2)C1` [Example 47, N-(4-{[2-({[(3R)-3-(Dimethylamino)pyrrolidin-1-yl]carbonyl}amino)pyridin-4-yl]oxy}-2-fluorophenyl)-N′-(4-fluorophenyl)cyclopropane-1,1-dicarboxamide], in that order: 83 nM and 27 nM.
Consider `CN1CCC(N(C)C(=O)Nc2cc(Oc3ccc(NC(=O)C4(C(=O)Nc5ccccc5)CC4)c(F)c3)ccn2)CC1` [Example 48, N-(2-Fluoro-4-{[2-({[methyl(1-methylpiperidin-4-yl)amino]carbonyl}amino)pyridin-4-yl]oxy}phenyl)-N′-phenylcyclopropane-1,1-dicarboxamide], for which the figures for the half-inhibitory concentration (IC50) in assay [1] and in assay [2] were 63 nM and 17 nM, respectively.
For `CN1CCN(C2CCN(C(=O)Nc3cc(Oc4ccc(NC(=O)C5(C(=O)Nc6ccccc6)CC5)c(F)c4)ccn3)CC2)CC1` [Example 54, N-(2-Fluoro-4-{[2-({[4-(4-methylpiperazin-1-yl)piperidin-1-yl]carbonyl}amino)pyridin-4-yl]oxy}phenyl)-N′-phenylcyclopropane-1,1-dicarboxamide], in that order: 64 nM and 20 nM.
In the case of `CN(C)C1CN(C2CCN(C(=O)Nc3cc(Oc4ccc(NC(=O)C5(C(=O)Nc6ccccc6)CC5)c(F)c4)ccn3)CC2)C1` [Example 55], the IC50 in assay [1] was found to be 120 nM; in assay [2], 43 nM.
For `CN1CCC(N(C)C(=O)Nc2cc(Oc3ccc(NC(=O)C4(C(=O)Nc5ccc(F)cc5F)CC4)c(F)c3)ccn2)CC1` [Example 56, N-(2,4-Difluorophenyl)-N′-(2-fluoro-4-{[2-({[methyl(1-methylpiperidin-4-yl)amino]carbonyl}amino)pyridin-4-yl]oxy}phenyl)cyclopropane-1,1-dicarboxamide] the same measures were 110 nM and 53 nM.
For `CN1CCC(N(C)C(=O)Nc2cc(Oc3ccc(NC(=O)C4(C(=O)Nc5ccccc5F)CC4)c(F)c3)ccn2)CC1` [Example 57, N-(2-Fluoro-4-{[2-({[methyl(1-methylpiperidin-4-yl)amino]carbonyl}amino)pyridin-4-yl]oxy}phenyl)-N′-(2-fluorophenyl)cyclopropane-1,1-dicarboxamide], in that order: 180 nM and 150 nM.
Consider `CN(C)[C@H]1CCN(C(=O)Nc2cc(Oc3ccc(NC(=O)C4(C(=O)Nc5ccccc5)CC4)c(F)c3)ccn2)C1` [Example 58, N-(4-{[2-({[(3S)-3-(Dimethylamino)pyrrolidin-1-yl]carbonyl}amino)pyridin-4-yl]oxy}-2-fluorophenyl)-N′-phenylcyclopropane-1,1-dicarboxamide], for which the IC50 in assay [1] stood at 85 nM; in assay [2], 25 nM.
With `CN(C)[C@@H]1CCN(C(=O)Nc2cc(Oc3ccc(NC(=O)C4(C(=O)Nc5ccccc5)CC4)c(F)c3)ccn2)C1` [Example 59, N-(4-{[2-({[(3R)-3-(Dimethylamino)pyrrolidin-1-yl]carbonyl}amino)pyridin-4-yl]oxy}-2-fluorophenyl)-N′-phenylcyclopropane-1,1-dicarboxamide], the IC50 in assay [1] worked out at 75 nM; in assay [2], 44 nM.
For `CCN1CCC(N(C)C(=O)Nc2cc(Oc3ccc(NC(=O)C4(C(=O)Nc5ccccc5)CC4)c(F)c3)ccn2)CC1` [Example 60, N-(4-{[2-({[(1-Ethylpiperidin-4-yl)(methyl)amino]carbonyl}amino)pyridin-4-yl]oxy}-2-fluorophenyl)-N′-phenylcyclopropane-1′-dicarboxamide], in that order: 82 nM and 15 nM.
With `O=C(Nc1cc(Oc2ccc(NC(=O)C3(C(=O)Nc4ccc(F)cc4)CC3)c(F)c2)ccn1)N1CCC1` [Example 61, N-[4-({2-[(Azetidin-1-ylcarbonyl)amino]pyridin-4-yl]oxy}-2-fluorophenyl]-N′-(4-fluorophenyl)cyclopropane-1,1-dicarboxamide], the IC50 in assay [1] and in assay [2] was 15 nM throughout.
For `O=C(Nc1cc(Oc2ccc(NC(=O)C3(C(=O)Nc4ccc(F)cc4)CC3)c(F)c2)ccn1)N1CCCC1` [Example 62, N-(4-Fluorophenyl)-N′-[2-fluoro-4-({2-[(pyrrolidin-1-ylcarbonyl)amino]pyridin-4-yl}oxy)phenyl]cyclopropane-1,1-dicarboxamide], the IC50 in assay [1] is 20 nM; in assay [2], 25 nM.
For `O=C(Nc1cc(Oc2ccc(NC(=O)C3(C(=O)Nc4ccc(F)cc4)CC3)c(F)c2)ccn1)N1CCOCC1` [Example 63, N-[2-Fluoro-4-({2-[(morpholin-4-ylcarbonyl)amino]pyridin-4-yl}oxy)phenyl]-N′-(4-fluorophenyl)cyclopropane-1,1-dicarboxamide] the same measures were 14 nM and 54 nM.
